# Where “and” joins values, the source holds several entries; their conditions need not be identical. Identical values can stand only once.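 How tested: cells in 96-well plates exposed to compound for 48 hours at five concentrations. The concentration for 50% growth inhibition is given as GI50. The concentration for full growth arrest is given as TGI.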
# Key:
# Test in all cases: NCI tumour cell line growth inhibition, 48 h
# [1] = test system: T-47D breast
# [2] = test system: BT-549 breast
# [3] = test system: MCF7 breast
# [4] = test system: KM20L2 colon
# [5] = test system: DLD-1 colon
# [6] = test system: RXF-631 renal
# [7] = test system: DMS 114 small cell lung
# [8] = test system: DMS 273 small cell lung
# [9] = test system: MDA-N
Structure (SMILES),GI50 [1],TGI [1],GI50 [2],TGI [2],GI50 [3],TGI [3],further results
O=C1/C(=C/c2ccc([N+](=O)[O-])s2)Oc2ccc(Br)cc21,0.25 µM,0.804 µM,0.257 µM,0.741 µM,0.309 µM,1.87 µM,
CCOC(=O)c1c(C)n(Cc2ccc(Cl)cc2Cl)c2c1cc(O)c1[nH]c(Cc3ccccc3)nc12,5.27 µM,25.9 µM,2.77 µM,7.02 µM,3.24 µM,10.1 µM,
COC(=O)C(C(=O)C(=O)Nc1nc2ccc(OC)cc2s1)c1cnc2ccccc2n1 (stereo not given),,,,,,,TGI [4]: > 100 µM; TGI [5]: > 100 µM
CC(C)(C)c1ccc(OCCCCCCCN2CCNCC2)cc1,1.76 µM,3.93 µM,1.53 µM,3.01 µM,1.62 µM,3.26 µM,
COc1cccc(C2=C(c3cn(C)c4c(C)cccc34)C(=O)NC2=O)c1,> 20.2 µM,> 25 µM,> 25 µM,> 25 µM,16.5 µM,> 25 µM,
NNC(=O)C(=O)N/N=C1\CCCC1C(=O)CCC(=O)Nc1cccc(Cl)c1 (stereo not given),,,,,,,TGI [4]: > 100 µM; TGI [5]: > 100 µM; TGI [6]: > 100 µM; TGI [7]: > 100 µM
N#C/C(=C\c1ccccn1)c1nc2ccccc2o1,14.5 µM,34.3 µM,17.3 µM,36.1 µM,16 µM,> 100 µM,
Cc1cc(N)c2cc(NC(=O)/C=C\c3ccccc3Cl)ccc2n1,,,1.58 µM,3.01 µM,,,
NC(=O)c1c(-c2ccccc2)c(-c2ccccc2)cc2c(=O)c3ccccc3[nH]c12,,,,,,,TGI [4]: 72.9 µM; TGI [5]: > 100 µM; TGI [6]: 87.1 µM; TGI [8]: 46.6 µM; TGI [7]: 56.8 µM
O=C1c2ccccc2-n2c1nc1ccc([N+](=O)[O-])cc1c2=O,,> 100 µM,,> 100 µM,,24.4 µM,
CCc1n(Cc2ccc3ccccc3c2)cc[n+]1Cc1ccc2ccccc2c1,0.425 µM,4.7 µM,0.674 µM,2.12 µM,0.384 µM,1.8 µM,
CCOC(=O)c1nc2sc(Cl)cn2c1/C=N/N=C(N)N,30.6 µM,> 74 µM,28.3 µM,> 59.6 µM,27.5 µM,> 58.7 µM,
O=C1CC[C@@H]2[C@H]3CCC(=O)c4c3c(c3cccc(O)c3c4O)O[C@@]23C(=O)c2cccc(O)c2C(O)=C13,,,> 100 µM,> 100 µM,> 100 µM,> 100 µM,
O=c1oc2cc(O)ccc2cc1-c1nc2ccccc2o1,,31.2 µM,,54 µM,,> 100 µM,TGI [9]: > 100 µM
CCCOC(=O)C1C(c2ccc(OC)cc2)NC(c2ccc(OC)cc2)C(C(=O)OCCC)S1(=O)=O (stereo not given),,,,,,,GI50 [4]: > 100 µM; TGI [4]: > 100 µM; GI50 [5]: > 100 µM; TGI [5]: > 100 µM; GI50 [6]: > 100 µM; TGI [6]: > 100 µM; GI50 [8]: > 100 µM; TGI [8]: > 100 µM; GI50 [7]: > 100 µM; TGI [7]: > 100 µM
CCCCCCCCCCCCNC(=S)OCCCC,,,,,,,TGI [4]: > 100 µM; TGI [5]: > 100 µM; TGI [6]: > 100 µM; TGI [8]: > 100 µM; TGI [7]: > 100 µM
COc1c(O)ccc(/C=N/NC(=S)NCOCCOC(C)=O)c1OC,,,,,,,TGI [4]: > 100 µM; TGI [5]: > 100 µM; TGI [6]: > 100 µM; TGI [8]: > 100 µM; TGI [7]: > 100 µM

Structure (SMILES),GI50 [1],TGI [1],GI50 [2],TGI [2],GI50 [3],TGI [3],further results
Cc1nc2sc(C(=O)Nc3cccc4c3OCCO4)c(N)c2cc1C(C)O (stereo not given),5.33 µM,> 100 µM,,,2.11 µM,> 100 µM,
C=CC(=O)N1CCN(c2nc(OC[C@@H]3CCCN3C)nc3c(F)c(-c4nc(N)cc(C)c4C(F)(F)F)c(Cl)cc23)[C@@H](C)C1,2.14 µM,7.17 µM,1.71 µM,3.32 µM,1.13 µM,2.51 µM,
CN(C)Cc1nsc(N(C)C)n1,,> 100 µM,,> 100 µM,,> 100 µM,TGI [9]: > 100 µM
Cc1nc2ccccc2c(/C=C/c2ccc(C(F)(F)F)cc2)c1C(=O)/C=C/c1ccccc1,1.07 µM,3.13 µM,,,,,
NNC(=S)N/N=C(\c1nc2ccc(Cl)cc2[nH]c1=O)C(O)c1cccc([N+](=O)[O-])c1 (stereo not given),,,,,,,TGI [4]: > 100 µM; TGI [6]: > 100 µM; TGI [8]: > 58.7 µM; TGI [7]: > 24.5 µM
O=C1CC2=CCCC2O1 (stereo not given),,,,,,,TGI [5]: > 100 µM; TGI [8]: > 100 µM; TGI [7]: > 100 µM
O=C1c2ccccc2C(=O)N1CCN(CCN1C(=O)c2ccccc2C1=O)Cc1ccccc1,,,,,,,TGI [4]: > 100 µM; TGI [5]: > 100 µM; TGI [8]: > 100 µM; TGI [7]: > 100 µM
CC(=O)OC1C(C)OC(Oc2c(-c3ccc(O)cc3)oc3cc(O)cc(O)c3c2=O)C(O)C1OC(C)=O (stereo not given),23.4 µM,68.6 µM,19.9 µM,54.8 µM,28.3 µM,> 100 µM,
COc1cccc2c1C(=O)c1c(O)c3c(c(O)c1C2=O)C[C@@](O)(C(=O)CO)C[C@@H]3OC1CC2C(OCN2CN2COC3C(C)OC(O[C@H]4C[C@](O)(C(=O)CO)Cc5c(O)c6c(c(O)c54)C(=O)c4c(OC)cccc4C6=O)CC32)C(C)O1 (stereo not given in full),0.00185 µM,0.0174 µM,0.024 µM,> 0.46 µM,0.00264 µM,0.12 µM,
CN(COC(=O)C(C)(C)C)c1nc(N(C)COC(=O)C(C)(C)C)nc(N(C)COC(=O)C(C)(C)C)n1,,> 100 µM,,> 100 µM,,> 100 µM,TGI [9]: 80.3 µM
CCOC(=O)CCC(NC(=O)c1ccc(Oc2nc3cc(N)cc(N)c3nc2-c2ccccc2)cc1)C(=O)OCC (stereo not given),24.6 µM,59.7 µM,33.7 µM,> 100 µM,53.6 µM,> 100 µM,
Nc1ncnc2c1ncn2C1OC(F)(COS(N)(=O)=O)C(O)C1O (stereo not given),> 100 µM,> 100 µM,> 100 µM,> 100 µM,> 100 µM,> 100 µM,
Cc1ccc(-c2csc3ncnc(Nc4cccc(O)c4)c23)cc1,44 µM,> 100 µM,37 µM,98.2 µM,41.6 µM,> 100 µM,
Cc1ccc(S(=O)(=O)NC(=O)Nc2ncn[nH]2)cc1,,> 100 µM,,> 100 µM,,> 100 µM,TGI [9]: > 100 µM
O=S(=O)(c1ccccc1)C1(C2(S(=O)(=O)c3ccccc3)CCN=N2)CCN=N1 (stereo not given),,,,,,,TGI [5]: > 100 µM; TGI [8]: > 100 µM; TGI [7]: > 100 µM
O=C(Nc1ccc(Br)cc1)c1cc(Br)ccc1O,0.337 µM and 0.604 µM,5.02 µM and 7.42 µM,0.327 µM and 0.724 µM,2.12 µM and 3.03 µM,0.412 µM and 1.29 µM,3.37 µM and 7.8 µM,

# Reference: PubChem BioAssay (NCI)
